Each structure is given as a SMILES string. Marks after values point to notes of the source that are not given here.

For assay [1], the target named is T1, SrtA (Staphylococcus aureus, UniProt Q2FV99).
T1 construct: The gene encoding SrtA (lacking the N-terminal transmembrane domain (N1–59)); made in house
As to the kind of experiment: Reversible inhibition assay of SrtA. It counts as biochemical, S. aureus. The following applies: after incubation at 10 × IC50 and dilution. As for the experimental part:
To evaluate the reversible inhibition by Sal A of SrtA, 100 μl of purified SrtA was incubated with Sal A at a final concentration equal to 10-fold the IC50 for 1 h at 37°C. Then, 9.9 ml reaction buffer was added. Subsequently, 10 μl of the substrate peptide was added to the 190 μl diluted mixture at a final concentration of 10 μM. The fluorescence intensity was measured using a microplate reader at λex = 350 nm and λem = 495 nm. Triplicate measurements were obtained for each data point, and the data are reported as the mean ± SEM.

The test system of assay [2] is S. aureus USA300. As to the kind of experiment: Pneumonia model, bacterial load and histopathology of the lungs. It counts as in vivo, C57BL/6J mice. The conditions noted are these: mice, 1 × 10^9 CFU i.n., 24 h. On the procedure: The animal experiments were performed using 6- to 8-week-old female C57BL/6J mice obtained from the Experimental Animal Center of Jilin University and conducted according to the guidelines of the Animal Care and Use Committee of Jilin University. The mouse S. aureus pneumonia model was generated as described previously. Briefly, the mice were anaesthetized with ether and inoculated with 30 μl bacterial resuspension via the left nare. The mice were then held upright to allow the bacteria to be inhaled into the lungs. For the survival assessment, groups of 10 mice were challenged with 2 × 10^9 CFU S. aureus. One hour after intranasal inoculation, the mice were subcutaneously injected with 100 mg/kg of Sal A, 75 mg/kg of latamoxef or 100 mg/kg of Sal A plus 75 mg/kg of latamoxef at 12 h intervals, and survival was assessed for 96 h. For the bacterial load, histopathological, and bronchoalveolar lavage fluid (BALF) experiments, mice were inoculated with 1 × 10^9 CFU S. aureus. The mice were then given a subcutaneous injection of 100 mg/kg Sal A, 75 mg/kg latamoxef or a combination of 100 mg/kg Sal A and 75 mg/kg every 12 h. After 24 h, the left lung of each anaesthetized mouse was aseptically excised and homogenized, and the CFU was determined by serial dilutions. The right lungs from each group of mice were excised for histopathological analysis, and the samples were fixed in 10% formalin and stained with haematoxylin and eosin (H&E).

In assay [3] the target is T1, SrtA. In words: Biolayer interferometry assay. It counts as binding, S. aureus. On the procedure:
The kinetics of the binding of Sal A to SrtA were determined by a biolayer interferometry (BLI) assay using the Octet RED96 system (ForteBio, Inc., Menlo Park, CA) as described previously. Ni-NTA sensors were used to bind the His-tag SrtA protein. The assay buffer used was PBS containing 0.1% bovine serum albumin and 0.02% Tween-20, pH 6.5. Before the assay was performed, the Ni-NTA sensors were pre-wetted in assay buffer for 10 min, and then the Ni-NTA sensors were flushed with buffer for 60 s to generate the baseline. SrtA was immobilized on the surface of the sensor tip by incubating it in […] protein solution for 3600 s. The excess protein was removed by washing the sensor with buffer for 300 s. Subsequently, the sensor was exposed to a cycle of 60 s for the baseline step, 200 s for the association step and 100 s for the dissociation step in different concentrations of Sal A solution (250, 125, 62.5, 31.25 and 15.625 μM). The binding of the sensor to protein without the loading of Sal A served as a control. The data were processed using the double reference subtraction method in Forte Bio analysis software (v6.4).
For orientation: BLI is a label-free optical method that tracks binding on a fibre tip over time.

Assay [4] deals with T1, SrtA. In words: SrtA activity assay (FRET). It counts as biochemical, S. aureus. On the procedure: The SrtA activity assay was performed by using FRET as described previously. Briefly, a mixture of 4 μM recombinant SrtA and different concentrations of Sal A in a 300 μl reaction volume (50 mM Tris·HCl, 150 mM NaCl and 5 mM CaCl2, pH 7.5) was incubated for 1 h at 37°C. Then, 10 μM substrate peptide was added and incubated for an additional hour. Wells containing all constituents except SrtA served as blank controls. The fluorescence was measured with a microplate reader at λex = 350 nm and λem = 495 nm.

In assay [5] the test system is S. aureus protein A (SpA). As to the kind of experiment: Flow cytometry of FITC-IgG-stained S. aureus (SpA anchoring). It counts as cell-based. The conditions noted are these: untreated WT 108.58. As for the experimental part: To quantify the effect of the Sal A on the anchoring of SpA, the FITC-IgG-stained S. aureus was measured by flow cytometry. S. aureus strains were grown overnight and then were diluted 1:100 in BHI broth with or without Sal A and grown until the OD600 reached 1.0. Then, bacteria were harvested by centrifugation at 2,500 × g for 10 min. The collected pellets were washed once with PBS and were incubated in PBS solution containing 0.2% BSA (wt/vol) for 10 min. Afterward, bacteria were washed thrice and then suspended in PBS containing FITC-labelled rabbit anti-goat-IgG at a dilution of 1:50 and incubated at 37°C in the dark for 60 min. After a thorough washing, bacteria were fixed with formaldehyde (2%, vol/vol) for 10 min at room temperature. Fluorescence signal was detected on a FACSCanto flow cytometer (Becton Dickinson, USA) and analyzed using FACSDiva software.

Assay [6] has as its system S. aureus biofilm. In words: Biofilm formation assay. It counts as cell-based. The conditions noted are these: Staphylococcus aureus, 18 h, read-out: inhibition of biofilm formation compared with the untreated group. On the procedure: Overnight cultures of S. aureus were diluted 1:100 in BHI media with or without Sal A to an OD600 of 0.6. Then, 5 µl of the bacterial culture was added to 195 µl BHI media with or without Sal A in a 96-well plate. The plate was incubated at 37°C for 18 h to form a biofilm, which was then quantitated as described previously.

The test system of assay [7] is T2, A92L-SrtA.
T2 construct: The gene encoding SrtA (lacking the N-terminal transmembrane domain (N1–59)); 6xHis (N); made in house
As to the kind of experiment: Fluorescence quenching assay, A92L-SrtA. It counts as binding, S. aureus. The conditions noted are these: fluorescence spectroscopy quenching. On the procedure: The fluorescence quenching assay was performed as previously described. Briefly, purified SrtA and mutant protein were diluted to 500 ng/ml with PBS. A total of 2.5 ml diluted protein solution was mixed with Sal A at different concentrations ranging from 0 to 4.5 μg. After incubation for 10 min, the fluorescence spectra of the mixed solutions were measured using a fluorescence spectrophotometer (RF5301, Japan). For the fluorescence measurement, the excitation and emission slits were set at 5.0 nm, the excitation wavelength was set at 280 nm, and fluorescence emission spectra in the range of 290–500 nm were scanned; the fluorescence intensity at 340 nm was recorded. All assays were performed in triplicate.

T1 sequence (Q2FV99 60-206): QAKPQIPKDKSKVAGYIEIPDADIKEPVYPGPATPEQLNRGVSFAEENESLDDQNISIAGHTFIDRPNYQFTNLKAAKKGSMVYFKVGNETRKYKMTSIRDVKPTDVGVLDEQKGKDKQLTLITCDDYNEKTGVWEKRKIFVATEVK

The term Kd denotes the equilibrium constant for the complex coming apart. High values mean a looser complex, low ones a tighter complex. The koff is a measure of how fast the partners let go of each other. A high value points to a short-lived complex. What is called kon is the rate constant with which the complex forms. A lower kon goes with slower complex formation. By IC50 is commonly meant the concentration that gives 50% inhibition. The inhibition is how much of the control response was suppressed. Take `O=C(/C=C/c1ccc(O)c(O)c1/C=C/c1ccc(O)c(O)c1)O[C@H](Cc1ccc(O)c(O)c1)C(=O)O` [Sal A, (2R)-3-(3,4-Dihydroxyphenyl)-2-[(E)-3-[2-[(E)-2-(3,4-dihydroxyphenyl)ethenyl]-3,4-dihydroxyphenyl]prop-2-enoyl]oxypropanoic acid]: in assay [1], the “SrtA activity recovered in comparison with the control group” value is reported as 88 ± 3.21%. The “viable MRSA loads in the lungs in comparison with the control” value in assay [2] (s.c. 100 mg/kg Sal A and/or 75 mg/kg latamoxef every 12 h) is recorded as “significantly decreased”. In assay [2] (s.c. 100 mg/kg Sal A and/or 75 mg/kg latamoxef, H&E), the “pulmonary inflammation (histopathology of the lungs)” value was “alleviated”. Further, in assay [3], binding was characterised by a dissociation constant (Kd) of 21.5 µM, the koff came out at 0.0138 s⁻¹ and the kon was found to be 582 M⁻¹ s⁻¹. Also, the IC50 in assay [4] is 11.6 µM. For the same molecule, the “mean value of fluorescence yield (Marker: All)” value in assay [5] was found to be 13.64. Besides, in assay [6], the inhibition at 256 µg/mL was determined as 33.1%. The KA in assay [7] is given as 3.78 (1 × 10^4) l/mol.

The values above are taken from PMC7006784, “The combination of salvianolic acid A with latamoxef completely protects mice against lethal pneumonia caused by methicillin-resistant Staphylococcus aureus” (Emerging Microbes & Infections, 2020).
